Where a SMILES comes first, the peptide text is derived from it. Bridges are numbered along the chain shown (N, C = ends). [ ]: non-standard residue; d: D form. Pen = CC(C)(S)[C@H](N)C(=O)O; hCys = N[C@@H](CCS)C(=O)O
Key:
Assay in all cases: cAMP accumulation via β-galactosidase (β-Gal) reporter system (cAMP Hunter GPCR assay)
Assay type in all cases: cell-based
MC-1R = MC-1R (Homo sapiens, UniProt Q01726); settings: ratio of EC-50 values, MC-1R versus MC-4R
Text: (§1) cAMP Accumulation Measurement via a β-Galactosidase (β-Gal) Reporter System
(§2) A chemiluminescence readout system that uses an enzyme fragment complementation (EFC) system with β-galactosidase (β-Gal) as the functional reporter system was used. This assay system for various melanocortin receptor systems is commercially available (cAMP Hunter GPCR assay system, Discoverx Corp, Fremont, Calif.). This assay utilizes the β-Gal enzyme that is split into two complementary portions; EA for Enzyme Acceptor and ED for Enzyme Donor. In the assay, the ED portion fused to cAMP is made to compete with cAMP generated by cells for binding to a cAMP-specific antibody. The EA is then added to form active β-Gal with any unbound ED-cAMP. […] Briefly, 10000 cells per well are plated overnight and each well (cells incubated with 10 μl assay buffer) is then incubated with 4X serial concentration of the test compound in the cell assay buffer (5 μL) and cAMP antibody reagent (5 μL) for 30 min at 37° C. The cell lysis buffer (20 μL) containing ED-cAMP coupled enzyme fragment and the reporter substrate (Emerald II-Galacton Star, 5:1) is then added and incubated for 60 min at room temperature. Next, 20 μL of EA β-Gal fragment reagent is added. After further incubation for 120 min at room temperature, the chemiluminescence is measured by a plate reader (Envision).

MC-3R = MC-3R (Homo sapiens, UniProt P41968); settings: for EC50: cAMP agonist readout, MC-3R, read-out: EC-50 (nM) MC-3R; for Selectivity Ratios MC4R/MC3R: ratio of EC-50 values, MC-3R versus MC-4R
Chain of MC-3R (P41968 whole entry): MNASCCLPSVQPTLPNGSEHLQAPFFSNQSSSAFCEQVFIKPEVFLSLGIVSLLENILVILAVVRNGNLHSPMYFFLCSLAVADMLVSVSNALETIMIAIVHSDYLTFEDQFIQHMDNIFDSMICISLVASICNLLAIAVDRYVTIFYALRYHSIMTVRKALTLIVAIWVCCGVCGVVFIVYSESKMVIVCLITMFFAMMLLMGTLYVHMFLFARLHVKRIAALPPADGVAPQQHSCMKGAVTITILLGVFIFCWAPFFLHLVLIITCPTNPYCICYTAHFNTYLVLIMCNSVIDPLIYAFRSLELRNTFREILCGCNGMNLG
Text: as §1, §2

MC-5R = MC-5R (Homo sapiens, UniProt P33032); settings: for Selectivity Ratios MC4R/MC5R: ratio of EC-50 values, MC-5R versus MC-4R
Chain of MC-5R (P33032 whole entry): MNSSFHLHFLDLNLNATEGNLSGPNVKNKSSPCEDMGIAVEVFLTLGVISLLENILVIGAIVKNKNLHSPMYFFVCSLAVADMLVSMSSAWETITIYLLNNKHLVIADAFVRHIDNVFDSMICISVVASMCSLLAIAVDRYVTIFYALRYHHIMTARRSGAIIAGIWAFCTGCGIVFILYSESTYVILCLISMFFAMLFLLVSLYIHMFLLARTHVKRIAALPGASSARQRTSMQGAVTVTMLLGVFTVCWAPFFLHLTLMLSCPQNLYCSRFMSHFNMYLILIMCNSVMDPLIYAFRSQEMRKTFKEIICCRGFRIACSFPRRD
Text: as §1
A chemiluminescence readout system that uses an enzyme fragment complementation (EFC) system with β-galactosidase (β-Gal) as the functional reporter system was used. This assay system for various melanocortin receptor systems is commercially available (cAMP Hunter GPCR assay system, Discoverx Corp, Fremont, Calif.). This assay utilizes the β-Gal enzyme that is split into two complementary portions; EA for Enzyme Acceptor and ED for Enzyme Donor. In the assay, the ED portion fused to cAMP is made to compete with cAMP generated by cells for binding to a cAMP-specific antibody. The EA is then added to form active β-Gal with any unbound ED-cAMP. This active enzyme then converts a chemiluminescent substrate to generate an output signal that is recorded on a standard microplate reader. Briefly, 10000 cells per well are plated overnight and each well (cells incubated with 10 μl assay buffer) is then incubated with 4X serial concentration of the test compound in the cell assay buffer (5 μL) and cAMP antibody reagent (5 μL) for 30 min at 37° C. The cell lysis buffer (20 μL) containing ED-cAMP coupled enzyme fragment and the reporter substrate (Emerald II-Galacton Star, 5:1) is then added and incubated for 60 min at room temperature. Next, 20 μL of EA β-Gal fragment reagent is added. After further incubation for 120 min at room temperature, the chemiluminescence is measured by a plate reader (Envision).

Chain of MC-1R (Q01726 whole entry): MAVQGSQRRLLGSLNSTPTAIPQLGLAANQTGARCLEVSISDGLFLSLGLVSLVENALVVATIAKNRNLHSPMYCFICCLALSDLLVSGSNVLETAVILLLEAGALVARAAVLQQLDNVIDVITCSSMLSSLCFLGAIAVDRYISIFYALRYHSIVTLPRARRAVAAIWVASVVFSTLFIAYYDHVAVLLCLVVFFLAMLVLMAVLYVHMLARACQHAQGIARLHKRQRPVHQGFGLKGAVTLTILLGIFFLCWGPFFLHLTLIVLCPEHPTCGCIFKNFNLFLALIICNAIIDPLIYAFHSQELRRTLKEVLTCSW

Selectivity Ratios MC4R/MC1R (MC-1R)	EC50 (MC-3R) [nM]	Selectivity Ratios MC4R/MC3R (MC-3R)	Selectivity Ratios MC4R/MC5R (MC-5R)	SMILES	EC50 (MC-5R; cAMP agonist readout, MC-5R, read-out: EC-50 (nM) MC-5R) [nM]
146.75	> 3000	>1872.97	459.17	CC(=O)N[C@@H](CCCNC(=N)N)C(=O)N[C@H]1CCSSC(C)(C)[C@@H](C(N)=O)NC(=O)[C@H](Cc2c[nH]c3ccccc23)NC(=O)[C@H](CCCNC(=N)N)NC(=O)[C@@H](Cc2ccccc2)NC(=O)[C@H](CC(N)=O)NC1=O [Compound 001554C, Ac-Arg-(hCys-Asn-D-Phe-Arg-Trp-Pen)-NH2] (Ac-R[hCys]N[dF]RW[Pen]-NH2; disulfide 2-7)	–
244.35	–	2.68	639.81	CC(=O)N[C@@H](CCCNC(=N)N)C(=O)N[C@H]1CCSSC(C)(C)[C@@H](C(N)=O)NC(=O)[C@H](Cc2c[nH]c3ccccc23)NC(=O)[C@H](CCCNC(=N)N)NC(=O)[C@@H](Cc2ccccc2)NC(=O)[C@H](CCC(N)=O)NC1=O [Compound 001555C, Ac-Arg-(hCys-Gln-D-Phe-Arg-Trp-Pen)-NH2] (Ac-R[hCys]Q[dF]RW[Pen]-NH2; disulfide 2-7)	–
123.06	> 3000	>1615.55	916.48	CC(=O)N[C@@H](CCCNC(=N)N)C(=O)N[C@H]1CCSSC(C)(C)[C@@H](C(N)=O)NC(=O)[C@H](Cc2c[nH]c3ccccc23)NC(=O)[C@H](CCCNC(=N)N)NC(=O)[C@@H](Cc2ccccc2)NC(=O)[C@H](CO)NC1=O [Compound 001556C, Ac-Arg-(hCys-Ser-D-Phe-Arg-Trp-Pen)-NH2] (Ac-R[hCys]S[dF]RW[Pen]-NH2; disulfide 2-7)	–
465.77	> 3000	>2705.95	1846.64	CC(=O)N[C@@H](CCCNC(=N)N)C(=O)N[C@H]1CCSSC(C)(C)[C@@H](C(N)=O)NC(=O)[C@H](Cc2c[nH]c3ccccc23)NC(=O)[C@H](CCCNC(=N)N)NC(=O)[C@@H](Cc2ccccc2)NC(=O)[C@H]([C@@H](C)O)NC1=O [Compound 001574C, Ac-Arg-(hCys-Thr-D-Phe-Arg-Trp-Pen)-NH2] (Ac-R[hCys]T[dF]RW[Pen]-NH2; disulfide 2-7)	–
35.57	–	1.75	101.41	CC(=O)N[C@@H](CCCNC(=N)N)C(=O)N[C@H]1CCC(=O)NC[C@@H](C(N)=O)NC(=O)[C@H](Cc2c[nH]c3ccccc23)NC(=O)[C@H](CCCNC(=N)N)NC(=O)[C@@H](Cc2ccccc2)NC(=O)[C@H](CCC(N)=O)NC1=O [Compound 001576C, Ac-Arg-(Glu-Gln-D-Phe-Arg-Trp-Dpr)-NH2]	–
–	–	–	–	CC(=O)N[C@@H](CCCNC(=N)N)C(=O)N[C@H]1CSSC[C@@H](C(N)=O)NC(=O)[C@H](Cc2c[nH]c3ccccc23)NC(=O)[C@H](CCCNC(=N)N)NC(=O)[C@@H](Cc2ccccc2)NC(=O)[C@H](Cc2c[nH]cn2)NC(=O)[C@@H](C)NC1=O [RM-493, reference compound]	1680

From patent US20220226425A1, “METHOD OF TREATING MELANOCORTIN-4 RECEPTOR PATHWAY-ASSOCIATED DISORDERS” (RHYTHM PHARMACEUTICALS, INC., priority 2015, published 2022)
